One data set in a line: in vivo. As to conditions: rat.
In a further data set the test system is rats. As to conditions: rat, in vivo.

In general, LD50 refers to the dose expected to kill half of the subjects tested. `FC(F)(F)OC(F)(F)C(F)(F)OC(F)(F)C(F)(F)OC(F)(F)C(F)(F)OC(F)(F)C(F)(F)OC(F)(F)C(F)(F)OC(F)(F)C(F)(F)OC(F)(F)C(F)(F)OC(F)(F)F` [PFHG, 1,1,1,3,3,4,4,6,6,7,7,9,9,10,10,12,12,13,13,15,15,16,16,18, 18,19,19,21,21,22,22,24,24,24-tetratriacontafluoro-2,5,8,11, 14,17,20,23-octaoxatetetracosane] had an LD50 in the data set “in vivo” of more than 10000 mg/kg. Further, in the data set with rats, the “toxicity (in words)” value is listed as “essentially nontoxic”.

Values taken from patent US4871109A (priority 1988, dated 1989).
